Laboratory results taken from EPA's ToxValDB 9.5 (doi:10.2903/j.efsa.2012.2502).

Key:
Colinus virginianus = conditions: acute, oral, mortality
Rattus norvegicus = conditions: for LD50: acute, oral, mortality; for NOAEL: reproduction developmental, histopathology: nonneoplastic
Oryctolagus sp. = conditions: developmental; development
Oncorhynchus mykiss = conditions: acute; duration: 96 hours; mortality
Apis mellifera = conditions: acute, mortality
Tagia sp. = conditions: acute; duration: 14 days; mortality
Typhlodromus pyri = assay: LR50; higher = less toxic; conditions: not reported; mortality

| Compound | LD50 (Colinus virginianus; diet) [mg/kg-day] | LD50 (Colinus virginianus) [mg/kg] | LD50 (Rattus norvegicus) [mg/kg] | NOAEL (Rattus norvegicus) [mg/kg-day] | NOAEL (Oryctolagus sp.) [mg/kg-day] | LC50 (Oncorhynchus mykiss) [µg/mL] | LD50 (Apis mellifera; dermal) [µg/piece] | LD50 (Apis mellifera; oral, unspecified) [µg/piece] | LC50 (Tagia sp.) [mg/kg] | LR50 (Typhlodromus pyri) [g/ha] |
| --- | --- | --- | --- | --- | --- | --- | --- | --- | --- | --- |
| C=C1C[C@]23C[C@@]1(O)CC[C@H]2[C@@]12C=C[C@H](O)[C@@](C)(C(=O)O1)[C@H]2[C@@H]3C(=O)O [Gibberellic acid] | > 1380 | > 2250 |  |  |  |  |  |  |  |  |
| C=C1C[C@]23C[C@H]1CC[C@H]2[C@@]12CC[C@H](O)[C@@](C)(C(=O)O1)[C@H]2[C@@H]3C(=O)O [Gibberellin A4] |  |  | > 5000 | 300 | 300 | > 1.3 | > 100 | > 87 | > 1250 | > 40 |
| C=C1C[C@]23C[C@H]1CC[C@H]2[C@@]12C=C[C@H](O)[C@@](C)(C(=O)O1)[C@H]2[C@@H]3C(=O)O [Gibberellin A7] |  |  | > 5000 | 300 | 300 | > 1.3 | > 100 | > 87 | > 1250 | > 40 |
